# Results: patent publication US12460265B2, “Post-treatment breast cancer prognosis” (Biotheranostics, Inc., priority 2010, dated 2025)
# Experiments:
# [1] = system: primary ER+ breast cancer; settings: post-tamoxifen treatment; subjects with primary ER+ breast cancer; cited from earlier work
# ER+ breast cancer = assay: NCIC CTG MA.17 case-control study: cancer recurrence after 5 years of adjuvant tamoxifen, letrozole vs placebo; format: in vivo, human; settings: for Cases (cancer recurrence), number / Cases (cancer recurrence), percent: Letrozole arm
# Text: Samples from the NCIC CTG MA.17 cohort (see Goss et al., J. Clin. Oncol., 26(12):1948-1955, 2008) were used. 100 cases with 200 controls were used. The 100 cases included 61 cases of distant cancer recurrence; 17 cases of local cancer recurrence; 5 cases of regional cancer recurrence; 16 cases of contralateral recurrences; and 1 unknown case. Of these, the contralateral and unknown cases were excluded.
# Clinical follow-up data were available for the samples used, which were formalin-fixed paraffin-embedded (FFPE) tumor blocks from the time of diagnosis. Odds ratios were calculated with analysis of BCI, H:I, HoxB13 and MGI as continuous and categorical variables. Multivariate analysis also included age, tumor grade and treatment in the analysis. Treatment interaction: age and tumor grade were also included in the analysis. P-values were calculated for the interaction term.
# STATISTICAL ANALYSES: Kaplan-Meier analysis with logrank test and Cox proportional hazards regression were performed to assess the association of gene expression indexes with clinical outcome. Multivariate Cox regression models were performed to assess the prognostic capacity of gene expression indexes after adjusting for known prognostic factors.
# Proportional hazards (PH) assumption was checked by scaled Schoenfeld residuals; variables violating PH assumption were adjusted for in the model through stratification. To account for the case-cohort design of the Table 1 cohort, we used weighted Kaplan-Meier analysis and Cox regression models with modifications to handle case-cohort designs (see ^19,20 as implemented in the survey package in R (www.r-project.org). To test for interaction between dichotomized MGI and the H:I ratio in Cox regression models, the Wald statistic was used in the Table 1 cohort and likelihood ratio test was used in the last cohort.
smiles,measurement,setting,value
"N#Cc1ccc(C(c2ccc(C#N)cc2)n2cncn2)cc1 [Letrozole, letrozole]",breast cancer-free survival and distant breast cancer-free survival,[1],improves breast cancer-free survival and distant breast cancer-free survival
same,"Cases (cancer recurrence), number",ER+ breast cancer; High HoxB13 expression,17
same,"Cases (cancer recurrence), percent",ER+ breast cancer; High HoxB13 expression,(28%)
same,"Cases (cancer recurrence), number",ER+ breast cancer; Low HoxB13 expression,14
same,"Cases (cancer recurrence), percent",ER+ breast cancer; Low HoxB13 expression,(23%)
same,"Odds Ratio, Treatment (Placebo vs Letrozole), in relation to cancer recurrence","ER+ breast cancer; univariate analysis, MA.17 subjects, 95% CI in the next column",2.02
